In patent US10414811B2, “Protease-resistant lipidated GLP-1 analogs” (MEDIMMUNE LIMITED, priority 2015, dated 2019) one finds EC50 data, which are given here for six compounds.

For assay [1], the target named is T1, human glucose-dependent insulinotropic peptide receptor (GIPR) (Homo sapiens, UniProt P48546).
T1 construct: expressed in transfected cells
T1 sequence (P48546 22-466): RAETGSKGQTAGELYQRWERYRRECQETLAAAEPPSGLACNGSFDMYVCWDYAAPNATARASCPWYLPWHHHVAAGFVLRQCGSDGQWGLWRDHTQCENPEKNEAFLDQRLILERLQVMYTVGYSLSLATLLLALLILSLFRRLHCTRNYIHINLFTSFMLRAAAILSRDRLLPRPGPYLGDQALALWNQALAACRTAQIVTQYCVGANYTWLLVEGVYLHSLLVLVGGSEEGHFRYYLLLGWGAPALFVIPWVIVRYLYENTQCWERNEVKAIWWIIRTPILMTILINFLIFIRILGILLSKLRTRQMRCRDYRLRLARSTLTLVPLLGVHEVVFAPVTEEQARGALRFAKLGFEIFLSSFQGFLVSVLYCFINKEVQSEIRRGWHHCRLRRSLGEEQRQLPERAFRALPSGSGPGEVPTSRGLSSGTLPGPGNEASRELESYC
In words: cAMP assay, human GIPR cells. In kind it is cell-based. Here is the method: (§1) Sample dilutions are made in duplicate.
(§2) A frozen cryo-vial of cells expressing the receptor of interest is thawed rapidly in a water-bath, transferred to pre-warmed assay buffer and spun at 240×g for 5 minutes. Cells are re-suspended in assay buffer at a batch-dependent optimized concentration (e.g. hGCGR cells at 2×10^5 cells/ml, hGLP-1R and hGIPR cells at 1×10^5 cells/ml).
(§3) To this, 5 μL cell suspension is added and the plates incubated at room temperature for 30 minutes.
(§4) cAMP levels are measured using a commercially available cAMP dynamic 2 HTRF kit (Cisbio, Cat #62AM4PEJ), following the two step protocol as per manufacturer's recommendations. In brief; anti-cAMP cryptate (donor fluorophore) and cAMP-d2 (acceptor fluorophore) are made up separately by diluting each 1/20 in conjugate & lysis buffer provided in the kit. 5 μL anti-cAMP cryptate is added to wells of the assay plate, and 5 μL cAMP-d2 is added to wells except non-specific binding (NSB) wells, to which conjugate and lysis buffer are added. […] EC50 values of the synthetic peptides determined in cAMP assays are then determined.
(§5) Data is transformed to % Delta F as described in the manufacturer's guidelines and analyzed by 4-parameter logistic fit to determine EC50 values. […] To compare the balance of activities at the GLP-1R and GCGR between different peptides and across different conditions, these can be correlated, where the EC50's are related to those of comparator peptides.
(In general: Cyclic AMP is a second messenger, typically raised through Gs and lowered through Gi signalling.)

The target in assay [2] is T2, human glucagon receptor (GCGR) (Homo sapiens, UniProt P47871).
T2 construct: expressed in transfected cells
Put plainly: cAMP assay, human GCGR cells. In kind it is cell-based. Here is the method:
as §1, §2, §3, §4, §5

[3] abbreviates: cAMP assay, first determination (n1), read-out: Primary assay EC50 GIP-R (n1).
Where [4] appears, read: cAMP assay, second determination (n2), read-out: Primary assay EC50 GIP-R (n2).
Setting [5] is: cAMP assay, first determination (n1), read-out: Primary assay EC50 Gluc-R (n1).
The mark [6] stands for this setting: cAMP assay, second determination (n2), read-out: Primary assay EC50 Gluc-R (n2).
[7] abbreviates: tris-lipidated peptides, first replicate, read-out: Primary assay EC50 GIP-R (n1).
[8] abbreviates: tris-lipidated peptides, second replicate, read-out: Primary assay EC50 Gluc-R (n2).

pEC50: −log10 of the molar value. Read-outs that look alike come from different tables or passages of the source. Numbered stars: 1 amine (or outer) side, 2 acyl side, 3 side chain; on linkers, the order of the positions; unused ones are H or OH. Square brackets hold non-standard residues; d marks the D form. Side chains are listed from the residue outwards. Peptide text beside a SMILES is read from it. * marks the point of attachment. γGlu = O=C(O)[C@H](CCC(=O)[*:2])N[*:1]; αMeF = C[C@](N)(Cc1ccccc1)C(=O)O; αMeK = C[C@](N)(CCCCN)C(=O)O; Lauroyl = CCCCCCCCCCCC(=O)*; αMeS = C[C@](N)(CO)C(=O)O; AEEA = NCCOCCOCC(=O)O; Aib = CC(C)(N)C(=O)O

T2 sequence (P47871 26-477): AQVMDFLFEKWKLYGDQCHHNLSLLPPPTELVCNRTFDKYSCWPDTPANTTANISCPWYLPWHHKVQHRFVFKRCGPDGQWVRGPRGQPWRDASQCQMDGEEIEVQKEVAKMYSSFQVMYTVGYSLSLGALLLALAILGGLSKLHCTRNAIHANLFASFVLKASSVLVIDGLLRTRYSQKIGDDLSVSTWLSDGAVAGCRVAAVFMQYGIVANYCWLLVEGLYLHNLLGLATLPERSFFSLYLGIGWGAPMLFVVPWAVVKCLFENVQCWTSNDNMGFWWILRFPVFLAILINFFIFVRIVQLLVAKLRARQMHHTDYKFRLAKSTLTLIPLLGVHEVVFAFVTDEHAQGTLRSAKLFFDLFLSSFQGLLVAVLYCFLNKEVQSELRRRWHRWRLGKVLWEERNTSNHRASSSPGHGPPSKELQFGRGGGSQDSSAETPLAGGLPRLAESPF

As a reminder, the pEC50 is −log10 of the EC50, conventionally taken in molar units. For `CCCCCCCCCCCC(=O)N[C@@H](CCC(=O)N[C@@H](CCC(=O)NCCCC[C@H](NC(=O)[C@H](C)NC(=O)[C@H](C)NC(=O)[C@H](CCC(=O)O)NC(=O)CNC(=O)[C@H](CCC(=O)O)NC(=O)[C@H](CC(C)C)NC(=O)[C@](C)(Cc1ccccc1)NC(=O)[C@H](CO)NC(=O)[C@](C)(CO)NC(=O)[C@@H](NC(=O)[C@H](CC(=O)O)NC(=O)[C@H](CO)NC(=O)[C@@H](NC(=O)[C@](C)(Cc1ccccc1)NC(=O)[C@H](CO)NC(=O)CNC(=O)[C@H](CCC(=O)O)NC(=O)C(C)(C)NC(=O)[C@@H](N)Cc1c[nH]cn1)[C@@H](C)O)C(C)C)C(=O)N[C@@H](CCC(=O)O)C(=O)N[C@@](C)(Cc1ccccc1)C(=O)N[C@H](C(=O)N[C@@H](C)C(=O)N[C@@](C)(Cc1ccccc1)C(=O)N[C@H](C(=O)N[C@H](C(=O)N[C@@](C)(CCCCN)C(=O)NCC(=O)NCC(N)=O)C(C)C)C(C)C)[C@@H](C)CC)C(=O)O)C(=O)O` [compound 129], the pEC50 in assay [1] (setting [3]), in assay [1] (setting [4]), in assay [2] (setting [5]) and in assay [2] (setting [6]) was ≤ 7.57 in each case.
Regarding `CC[C@H](C)[C@H](NC(=O)[C@](C)(Cc1ccccc1)NC(=O)[C@H](CCC(=O)O)NC(=O)[C@H](CCCCNC(=O)CC[C@H](NC(=O)CC[C@H](NC(=O)CCCCCCCCCCCCCCCCC(=O)O)C(=O)O)C(=O)O)NC(=O)[C@H](C)NC(=O)[C@H](C)NC(=O)[C@H](CCC(=O)O)NC(=O)CNC(=O)[C@H](CCC(=O)O)NC(=O)[C@H](CC(C)C)NC(=O)[C@](C)(Cc1ccccc1)NC(=O)[C@H](CO)NC(=O)[C@](C)(CO)NC(=O)[C@@H](NC(=O)[C@H](CC(=O)O)NC(=O)[C@H](CO)NC(=O)[C@@H](NC(=O)[C@](C)(Cc1ccccc1)NC(=O)[C@H](CO)NC(=O)CNC(=O)[C@H](CCC(=O)O)NC(=O)C(C)(C)NC(=O)[C@@H](N)Cc1c[nH]cn1)[C@@H](C)O)C(C)C)C(=O)N[C@@H](C)C(=O)N[C@@](C)(Cc1ccccc1)C(=O)N[C@H](C(=O)N[C@H](C(=O)N[C@@](C)(CCCCN)C(=O)NCC(=O)NCC(N)=O)C(C)C)C(C)C` [compound 156], the pEC50 in assay [1] (setting [3]), in assay [1] (setting [4]), in assay [2] (setting [5]) and in assay [2] (setting [6]) was ≤ 7.57 throughout.
For the compound `CC[C@H](C)[C@H](NC(=O)[C@](C)(Cc1ccccc1)NC(=O)[C@H](CCC(=O)O)NC(=O)[C@H](CCCCNC(=O)COCCOCCNC(=O)COCCOCCNC(=O)CCCCCCCCCCCCCCCCC(=O)O)NC(=O)[C@H](C)NC(=O)[C@H](C)NC(=O)[C@H](CCC(=O)O)NC(=O)CNC(=O)[C@H](CCC(=O)O)NC(=O)[C@H](CC(C)C)NC(=O)[C@](C)(Cc1ccccc1)NC(=O)[C@H](CO)NC(=O)[C@](C)(CO)NC(=O)[C@@H](NC(=O)[C@H](CC(=O)O)NC(=O)[C@H](CO)NC(=O)[C@@H](NC(=O)[C@](C)(Cc1ccccc1)NC(=O)[C@H](CO)NC(=O)CNC(=O)[C@H](CCC(=O)O)NC(=O)C(C)(C)NC(=O)[C@@H](N)Cc1c[nH]cn1)[C@@H](C)O)C(C)C)C(=O)N[C@@H](C)C(=O)N[C@@](C)(Cc1ccccc1)C(=O)N[C@H](C(=O)N[C@H](C(=O)N[C@@](C)(CCCCN)C(=O)NCC(=O)NCC(N)=O)C(C)C)C(C)C` [compound 162], the pEC50 in assay [1] (setting [3]), in assay [1] (setting [4]), in assay [2] (setting [5]) and in assay [2] (setting [6]) was ≤ 7.59 each time.
Turning to `CCCCCCCCCCCC(=O)N[C@@H](CCC(=O)NCCOCCOCC(=O)NCCOCCOCC(=O)NCCCC[C@H](NC(=O)CNC(=O)[C@H](CCC(=O)O)NC(=O)[C@H](CC(C)C)NC(=O)[C@H](Cc1ccc(O)cc1)NC(=O)[C@H](CO)NC(=O)[C@H](CO)NC(=O)[C@H](CCCCNC(=O)COCCOCCNC(=O)COCCOCCNC(=O)CC[C@H](NC(=O)CCCCCCCCCCC)C(=O)O)NC(=O)[C@H](CC(=O)O)NC(=O)[C@H](CO)NC(=O)[C@@H](NC(=O)[C@](C)(Cc1ccccc1)NC(=O)[C@H](CO)NC(=O)CNC(=O)[C@H](CCC(=O)O)NC(=O)C(C)(C)NC(=O)[C@@H](N)Cc1c[nH]cn1)[C@@H](C)O)C(=O)N[C@@H](C)C(=O)N[C@@H](C)C(=O)N[C@@](C)(CCCCN)C(=O)N[C@@H](CCC(=O)O)C(=O)N[C@@H](Cc1ccccc1)C(=O)N[C@H](C(=O)N[C@@H](C)C(=O)N[C@@H](Cc1ccccc1)C(=O)N[C@@H](CCCCNC(=O)COCCOCCNC(=O)COCCOCCNC(=O)CC[C@H](NC(=O)CCCCCCCCCCC)C(=O)O)C(=O)N[C@H](C(=O)N[C@@H](CCC(=O)O)C(=O)NCC(=O)NCC(N)=O)C(C)C)[C@@H](C)CC)C(=O)O` [compound 472] (H-H[Aib]EGS[αMeF]TSDK([AEEA-AEEA-γGlu-Lauroyl])SSYLEGK([AEEA-AEEA-γGlu-Lauroyl])AA[αMeK]EFIAFK([AEEA-AEEA-γGlu-Lauroyl])VEGG-NH2; N-terminus assumed), the pEC50 in assay [1] (setting [7]) was 7.70; in assay [2] (tris-lipidated peptides, first replicate, read-out: Primary assay EC50 Gluc-R (n1)), 7.70.
On to `CCCCCCCCCCCC(=O)N[C@@H](CCC(=O)NCCOCCOCC(=O)NCCOCCOCC(=O)NCCCC[C@H](NC(=O)[C@H](CC(=O)O)NC(=O)[C@H](CO)NC(=O)[C@@H](NC(=O)[C@](C)(Cc1ccccc1)NC(=O)[C@H](CO)NC(=O)CNC(=O)[C@H](CCC(=O)O)NC(=O)C(C)(C)NC(=O)[C@@H](N)Cc1c[nH]cn1)[C@@H](C)O)C(=O)N[C@@H](CO)C(=O)N[C@@H](CO)C(=O)N[C@@H](Cc1ccc(O)cc1)C(=O)N[C@@H](CC(C)C)C(=O)N[C@@H](CCC(=O)O)C(=O)NCC(=O)N[C@@H](CCC(=O)O)C(=O)N[C@@H](C)C(=O)N[C@@H](C)C(=O)N[C@@](C)(CCCCN)C(=O)N[C@@H](CCCCNC(=O)COCCOCCNC(=O)COCCOCCNC(=O)CC[C@H](NC(=O)CCCCCCCCCCC)C(=O)O)C(=O)N[C@@H](Cc1ccccc1)C(=O)N[C@H](C(=O)N[C@@H](C)C(=O)N[C@@H](Cc1ccccc1)C(=O)N[C@@H](CCCCNC(=O)COCCOCCNC(=O)COCCOCCNC(=O)CC[C@H](NC(=O)CCCCCCCCCCC)C(=O)O)C(=O)N[C@H](C(=O)N[C@@H](CCC(=O)O)C(=O)NCC(=O)NCC(N)=O)C(C)C)[C@@H](C)CC)C(=O)O` [compound 474] (H-H[Aib]EGS[αMeF]TSDK([AEEA-AEEA-γGlu-Lauroyl])SSYLEGEAA[αMeK]K([AEEA-AEEA-γGlu-Lauroyl])FIAFK([AEEA-AEEA-γGlu-Lauroyl])VEGG-NH2; N-terminus assumed), for which the pEC50 in assay [1] (setting [7]) and in assay [2] (setting [8]) was 7.70 in each case.
With `CCCCCCCCCCCC(=O)N[C@@H](CCC(=O)NCCOCCOCC(=O)NCCOCCOCC(=O)NCCCC[C@H](NC(=O)[C@H](CCC(=O)O)NC(=O)CNC(=O)[C@H](CCC(=O)O)NC(=O)[C@H](CC(C)C)NC(=O)[C@H](CCCCNC(=O)COCCOCCNC(=O)COCCOCCNC(=O)CC[C@H](NC(=O)CCCCCCCCCCC)C(=O)O)NC(=O)[C@H](CO)NC(=O)[C@](C)(CO)NC(=O)[C@@H](NC(=O)[C@H](CC(=O)O)NC(=O)[C@H](CO)NC(=O)[C@@H](NC(=O)[C@](C)(Cc1ccccc1)NC(=O)[C@H](CO)NC(=O)CNC(=O)[C@H](CCC(=O)O)NC(=O)C(C)(C)NC(=O)[C@@H](N)Cc1c[nH]cn1)[C@@H](C)O)C(C)C)C(=O)N[C@@H](C)C(=O)N[C@@](C)(CCCCN)C(=O)N[C@@H](CCC(=O)O)C(=O)N[C@@H](Cc1ccccc1)C(=O)N[C@H](C(=O)N[C@@H](C)C(=O)N[C@@H](Cc1ccccc1)C(=O)N[C@@H](CCCCNC(=O)COCCOCCNC(=O)COCCOCCNC(=O)CC[C@H](NC(=O)CCCCCCCCCCC)C(=O)O)C(=O)N[C@H](C(=O)N[C@@H](CCC(=O)O)C(=O)NCC(=O)NCC(N)=O)C(C)C)[C@@H](C)CC)C(=O)O` [compound 481] (H-H[Aib]EGS[αMeF]TSDV[αMeS]SK([AEEA-AEEA-γGlu-Lauroyl])LEGEK([AEEA-AEEA-γGlu-Lauroyl])A[αMeK]EFIAFK([AEEA-AEEA-γGlu-Lauroyl])VEGG-NH2; N-terminus assumed), the pEC50 in assay [1] (setting [7]) and in assay [2] (setting [8]) was 7.70 throughout.
